Test results reported in patent US20090312288A1 (TAKEDA PHARMACEUTICAL COMPANY LIMITED, priority 2008, published 2009).

What follows are molecules tested against Aurora B/INCENP (Homo sapiens, UniProt Q96GD4) (assay: Determination of inhibition of AIK: Aurora B/INCENP direct fluorescence polarization (IMAP) assay). Details: 10 uM ATP, 0.8 nM Aurora B/INCENP; values given as bins; read-out: IC50 of Exemplified Compounds Against AIK B.
Assay type: biochemical

Chain of Aurora B/INCENP (Q96GD4 whole entry): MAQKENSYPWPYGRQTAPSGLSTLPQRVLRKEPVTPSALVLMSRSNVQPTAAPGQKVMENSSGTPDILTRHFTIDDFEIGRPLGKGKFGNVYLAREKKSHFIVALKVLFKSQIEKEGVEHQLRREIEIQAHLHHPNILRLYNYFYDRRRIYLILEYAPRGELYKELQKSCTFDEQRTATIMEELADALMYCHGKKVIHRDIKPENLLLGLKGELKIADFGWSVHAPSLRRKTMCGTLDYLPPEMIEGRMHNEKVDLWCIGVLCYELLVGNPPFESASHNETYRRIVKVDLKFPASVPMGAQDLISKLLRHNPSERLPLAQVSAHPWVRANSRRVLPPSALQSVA
Chain of Aurora B/INCENP (Q9NQS7 whole entry partner): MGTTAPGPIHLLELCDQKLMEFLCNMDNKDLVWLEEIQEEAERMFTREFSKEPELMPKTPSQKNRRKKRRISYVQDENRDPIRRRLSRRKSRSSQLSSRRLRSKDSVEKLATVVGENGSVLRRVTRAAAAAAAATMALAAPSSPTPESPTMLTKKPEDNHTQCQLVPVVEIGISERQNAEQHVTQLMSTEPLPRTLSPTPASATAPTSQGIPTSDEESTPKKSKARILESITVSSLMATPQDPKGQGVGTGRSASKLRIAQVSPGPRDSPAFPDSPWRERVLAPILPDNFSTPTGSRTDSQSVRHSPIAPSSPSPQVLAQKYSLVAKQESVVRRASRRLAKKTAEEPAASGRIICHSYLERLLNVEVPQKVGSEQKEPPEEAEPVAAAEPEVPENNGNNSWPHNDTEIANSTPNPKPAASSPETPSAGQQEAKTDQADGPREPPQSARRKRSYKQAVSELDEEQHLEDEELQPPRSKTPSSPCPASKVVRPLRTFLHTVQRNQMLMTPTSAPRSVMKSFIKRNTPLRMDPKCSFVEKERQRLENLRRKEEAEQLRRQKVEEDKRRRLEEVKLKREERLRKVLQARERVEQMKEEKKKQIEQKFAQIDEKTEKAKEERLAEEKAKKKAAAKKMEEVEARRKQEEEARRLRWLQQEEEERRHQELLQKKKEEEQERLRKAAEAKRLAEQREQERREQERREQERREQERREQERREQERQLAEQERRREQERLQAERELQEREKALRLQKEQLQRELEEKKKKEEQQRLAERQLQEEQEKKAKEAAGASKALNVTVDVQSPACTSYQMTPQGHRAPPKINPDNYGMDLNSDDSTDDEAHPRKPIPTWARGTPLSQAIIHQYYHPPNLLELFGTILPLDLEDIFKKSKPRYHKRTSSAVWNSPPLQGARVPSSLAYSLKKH

SMILES | IC50 [nM]
CCS(=O)(=O)c1cccc(-c2cc(C(=O)NC[C@H](C)O)c(C)c3[nH]c4ncc(C)cc4c23)c1 [Compound 100, (S)-5-(3-(ethylsulfonyl)phenyl)-N-(2-hydroxypropyl)-3,8-dimethyl-9H-pyrido[2,3-b]indole-7-carboxamide] | 4 to 5.5
Cc1cnc2[nH]c3c(O)ccc(-c4cccc(S(=O)(=O)C5CC5)c4)c3c2c1 [Compound 404, 5-(3-(cyclopropylsulfonyl)phenyl)-3-methyl-9H-pyrido[2,3-b]indol-8-ol] | < 4
COc1ccc(-c2cccc(S(=O)(=O)N3CCCC3)c2)c2c1[nH]c1ncc(C)cc12 [Compound 159, 8-methoxy-3-methyl-5-(3-(pyrrolidin-1-ylsulfonyl)phenyl)-9H-pyrido[2,3-b]indole] | 8.6 to 13
CCOc1cccc(-c2ccc(OCC3CCN(C)CC3)c3[nH]c4ncc(C)cc4c23)c1 [Compound 184, 5-(3-ethoxyphenyl)-3-methyl-8-((1-methylpiperidin-4-yl)methoxy)-9H-pyrido[2,3-b]indole] | > 13
CCS(=O)(=O)c1cccc(-c2cc(C(=O)NCCNC)c(C)c3[nH]c4ncc(C)cc4c23)c1 [Compound 89, N-(2-(methylamino)ethyl)-5-(3-(ethylsulfonyl)phenyl)-3,8-dimethyl-9H-pyrido[2,3-b]indole-7-carboxamide] | 8.6 to 13
CCS(=O)(=O)c1cccc(-c2cc(C(=O)NC3CCN(C)CC3)c(C)c3[nH]c4ncc(C)cc4c23)c1 [Compound 88, 5-(3-(ethylsulfonyl)phenyl)-3,8-dimethyl-N-(1-methylpiperidin-4-yl)-9H-pyrido[2,3-b]indole-7-carboxamide] | 8.6 to 13
CCS(=O)(=O)c1cccc(-c2cc(C(=O)NCC3CCN(C)CC3)c(C)c3[nH]c4ncc(C)cc4c23)c1 [Compound 114, 5-(3-(ethylsulfonyl)phenyl)-3,8-dimethyl-N-((1-methylpiperidin-4-yl)methyl)-9H-pyrido[2,3-b]indole-7-carboxamide] | 5.6 to 8.5
CCS(=O)(=O)c1cccc(-c2cc(CN3CCN(C)CC3)cc3[nH]c4ncc(C)cc4c23)c1 [Compound 137, 5-(3-Ethanesulfonyl-phenyl)-3-methyl-7-(4-methyl-piperazin-1-ylmethyl)-9H-pyrido[2,3-b]indole] | 8.6 to 13
CCS(=O)(=O)c1cccc(-c2cc(C(=O)NC3CCN(C(C)C)CC3)c(C)c3[nH]c4ncc(C)cc4c23)c1 [Compound 104, 5-(3-(ethylsulfonyl)phenyl)-N-(1-isopropylpiperidin-4-yl)-3,8-dimethyl-9H-pyrido[2,3-b]indole-7-carboxamide] | 8.6 to 13
CCS(=O)(=O)c1cccc(-c2cc(C(=O)Nc3nccs3)c(C)c3[nH]c4ncc(C)cc4c23)c1 [Compound 106] | 5.6 to 8.5
CN1CCC(COc2ccc(-c3cccc(S(=O)(=O)C4CC4)c3)c3c2[nH]c2ncc(Cl)cc23)CC1 [Compound 286, 3-chloro-5-(3-(cyclopropylsulfonyl)phenyl)-8-((1-methylpiperidin-4-yl)methoxy)-9H-pyrido[2,3-b]indole] | 8.6 to 13
Cc1cnc2[nH]c3c(C)ccc(-c4cccc(C(=O)NC5CC5)c4)c3c2c1 [Compound 20, N-cyclopropyl-3-(3,8-dimethyl-9H-pyrido[2,3-b]indol-5-yl)benzamide] | 4 to 5.5
CC(=O)Nc1ccc(Sc2cccc3[nH]c4ncccc4c23)cc1 [Compound 21, N-(4-(9H-pyrido[2,3-b]indol-5-ylthio)phenyl)acetamide] | > 13
Cc1cnc2[nH]c3c(OCC4CCN(C)CC4)ccc(-c4cccc(S(=O)(=O)C5CC5)c4)c3c2c1 [Compound 179, 5-(3-(cyclopropylsulfonyl)phenyl)-3-methyl-8-((1-methylpiperidin-4-yl)methoxy)-9H-pyrido[2,3-b]indole] | 5.6 to 8.5
CCS(=O)(=O)c1cccc(-c2cc(CN3CCCC3)cc3[nH]c4ncc(C)cc4c23)c1 [Compound 138, 5-(3-Ethanesulfonyl-phenyl)-3-methyl-7-pyrrolidin-1-ylmethyl-9H-pyrido[2,3-b]indole] | > 13
CCS(=O)(=O)c1cccc(-c2cc(C(=O)N3CCSC3)c(C)c3[nH]c4ncc(C)cc4c23)c1 [Compound 98, (5-(3-(ethylsulfonyl)phenyl)-3,8-dimethyl-9H-pyrido[2,3-b]indol-7-yl)(thaiazolidin-3-yl)methanone] | 5.6 to 8.5
CCS(=O)(=O)c1cccc(-c2cc(C(=O)N3CCN(C)CC3)cc3[nH]c4ncc(C)cc4c23)c1 [Compound 141, [5-(3-Ethanesulfonyl-phenyl)-3-methyl-9H-pyrido[2,3-b]indol-7-yl]-(4-methyl-piperazin-1-yl)-methanone] | > 13
Cc1cnc2[nH]c3c(C)c(C(=O)NCCN(C)C)cc(-c4cccc(C(=O)NC5CC5)c4)c3c2c1 [Compound 122, 5-(3-(cyclopropylcarbamoyl)phenyl)-N-(2-(dimethylamino)ethyl)-3,8-dimethyl-9H-pyrido[2,3-b]indole-7-carboxamide] | > 13
CCS(=O)(=O)c1cccc(-c2cc(C(=O)N3CCOCC3)c(C)c3[nH]c4ncc(C)cc4c23)c1 [Compound 96] | 8.6 to 13

More lines, now with the values ahead:

IC50 [nM] | SMILES
8.6 to 13 | CCS(=O)(=O)c1cccc(-c2cnc(NCCN(C)C)c3[nH]c4ncc(C)cc4c23)c1 [Compound 42, N′-[5-(3-Ethanesulfonyl-phenyl)-3-methyl-9H-dipyrido[2,3-b;4′,3′-d]pyrrol-8-yl]-N,N-dimethyl-ethane-1,2-diamine]
< 4 | CCS(=O)(=O)c1cccc(-c2cnc(OCCCO)c3[nH]c4ncc(C)cc4c23)c1 [Compound 55, 3-[5-(3-Ethanesulfonyl-phenyl)-3-methyl-9H-dipyrido[2,3-b;4′,3′-d]pyrrol-8-yloxy]-propan-1-ol]
5.6 to 8.5 | CCS(=O)(=O)c1cccc(-c2cnc(NCCCN(C)C)c3[nH]c4ncc(C)cc4c23)c1 [Compound 41, N′-[5-(3-Ethanesulfonyl-phenyl)-3-methyl-9H-dipyrido[2,3-b;4′,3′-d]pyrrol-8-yl]-N,N-dimethyl-propane-1,3-diamine]
8.6 to 13 | CCS(=O)(=O)c1cccc(-c2cc(F)c(OCCN(C)C)c3[nH]c4ncc(C)cc4c23)c1 [Compound 204, 2-(5-(3-(ethylsulfonyl)phenyl)-7-fluoro-3-methyl-9H-pyrido[2,3-b]indol-8-yloxy)-N,N-dimethylethanamine]
> 13 | CCNCc1cc(-c2cccc(S(=O)(=O)CC)c2)c2c(c1)[nH]c1ncc(C)cc12 [Compound 139, [5-(3-Ethanesulfonyl-phenyl)-3-methyl-9H-pyrido[2,3-b]indol-7-ylmethyl]-ethyl-amine]
4 to 5.5 | CCS(=O)(=O)c1cccc(-c2cc(C(=O)OC)c(Br)c3[nH]c4ncc(C)cc4c23)c1 [Compound 148, 8-Bromo-5-(3-ethanesulfonyl-phenyl)-3-methyl-9H-pyrido[2,3-b]indole-7-carboxylic acid methyl ester]
4 to 5.5 | CCS(=O)(=O)c1cccc(-c2ccc(OCC3CCNCC3)c3[nH]c4ncc(C)cc4c23)c1 [Compound 185, 5-(3-(ethylsulfonyl)phenyl)-3-methyl-8-(piperidin-4-ylmethoxy)-9H-pyrido[2,3-b]indole]
> 13 | Cc1cnc2[nH]c3c(OCCCN(C)C)ccc(-c4cccc(NC(=O)C5CC5)c4)c3c2c1 [Compound 195, N-(3-(8-(3-(dimethylamino)propoxy)-3-methyl-9H-pyrido[2,3-b]indol-5-yl)phenyl)cyclopropanecarboxamide]
4 to 5.5 | CCS(=O)(=O)c1cccc(-c2cnc(Cl)c3[nH]c4ncc(C)cc4c23)c1 [Compound 33, 8-Chloro-5-(3-ethanesulfonyl-phenyl)-3-methyl-9H-dipyrido[2,3-b;4′,3′-d]pyrrole]
8.6 to 13 | CCS(=O)(=O)c1cccc(-c2cnc(NCC3CCN(C)CC3)c3[nH]c4ncc(C)cc4c23)c1 [Compound 46, [5-(3-Ethanesulfonyl-phenyl)-3-methyl-9H-dipyrido[2,3-b;4′,3′-d]pyrrol-8-yl]-(1-methyl-piperidin-4-ylmethyl)-amine]
< 4 | CCS(=O)(=O)c1cccc(-c2cnc(SC)c3[nH]c4ncc(C)cc4c23)c1 [Compound 75]
< 4 | CCS(=O)(=O)c1cccc(-c2ccc(OC[C@H](O)CO)c3[nH]c4ncc(C)cc4c23)c1 [Compound 231, (R)-3-(5-(3-(ethylsulfonyl)phenyl)-3-methyl-9H-pyrido[2,3-b]indol-8-yloxy)propane-1,2-diol]
4 to 5.5 | CCS(=O)(=O)c1cccc(-c2cnc(OC[C@@H](C)O)c3[nH]c4ncc(C)cc4c23)c1 [Compound 63, (R)-1-[5-(3-Ethanesulfonyl-phenyl)-3-methyl-9H-dipyrido[2,3-b;4′,3′-d]pyrrol-8-yloxy]-propan-2-ol]
5.6 to 8.5 | CCS(=O)(=O)c1cccc(-c2cnc(Oc3ccccc3)c3[nH]c4ncc(C)cc4c23)c1 [Compound 59, 5-(3-Ethanesulfonyl-phenyl)-3-methyl-8-phenoxy-9H-dipyrido[2,3-b;4′,3′-d]pyrrole]
> 13 | CCS(=O)(=O)c1cccc(-c2ccc(OCCCN(C)C)c3[nH]c4ncc(C(F)(F)F)cc4c23)c1 [Compound 258, 3-(5-(3-(ethylsulfonyl)phenyl)-3-(trifluoromethyl)-9H-pyrido[2,3-b]indol-8-yloxy)-N,N-dimethylpropan-1-amine]
> 13 | CCS(=O)(=O)c1cccc(-c2ccc(OC[C@H]3CCN(C)C3)c3[nH]c4ncc(C)cc4c23)c1 [Compound 186, (S)-5-(3-(ethylsulfonyl)phenyl)-3-methyl-8-((1-methylpyrrolidin-3-yl)methoxy)-9H-pyrido[2,3-b]indole]
< 4 | CCS(=O)(=O)c1cccc(-c2ccc(OCCCN(C)CCO)c3[nH]c4ncc(C)cc4c23)c1 [Compound 305, 2-((3-(5-(3-(ethylsulfonyl)phenyl)-3-methyl-9H-pyrido[2,3-b]indol-8-yloxy)propyl)(methyl)amino)ethanol]
5.6 to 8.5 | CCS(=O)(=O)c1cccc(-c2ccc(OCCOC(=O)[C@H](C)N)c3[nH]c4ncc(C)cc4c23)c1 [Compound 226, (S)-2-(5-(3-(ethylsulfonyl)phenyl)-3-methyl-9H-pyrido[2,3-b]indol-8-yloxy)ethyl 2-aminopropanoate]
